Experimental data: publication PMC11672137, “High-Affinity Lectin Ligands Enable the Detection of Pathogenic Pseudomonas aeruginosa Biofilms: Implications for Diagnostics and Therapy” (JACS Au, 2024)

What was measured:
LecA [1] = molecular target: T1, LecA (Pseudomonas aeruginosa, UniProt Q05097); assay: Competitive binding assay based on fluorescence polarization, LecA; conditions: LecA 20 µM, reporter ligand S38, 2% DMSO; read-out: IC50 (competitive binding, FP)
T1 construct: made in house
Method: Next, binding of the optimized divalent ligand 17 and its synthetic precursor 16 to LecA was evaluated by fluorescence polarization-based (FP) assays,[47] SPR, and ITC. […] Therefore, fluorescent ligand 17 was analyzed in a direct binding experiment by FP. […] The dissociation constants for 16 were 47.2 ± 11.3 nM (ITC) and 47.8 ± 44.1 nM (steady-state SPR), while for 17, the values were 64.1 ± 31.1 nM and 79.3 ± 24.9 nM (steady-state SPR). For the SPR experiments, Kd was also determined by single-cycle kinetic analysis resulting in approximately five times higher affinity, but the data have limited reliability due to suboptimal fit for the kinetic curves (Figures S13B and S14).[58]−[60] […]
137 mM NaCl, 2.6 mM KCl at pH 7.4 supplemented with 1 mM CaCl2). Protein concentration was determined by UV spectroscopy at 280 nm using a molar extinction coefficient of 27 960 M-1 cm-1 for LecA and 6 990 M-1 cm-1 for LecB.
All synthesized alkyne precursors (S5m, S5p, S6m, S6p, S11, 25, S16, S22 and S24) were analysed in the previously established competitive binding assays based on fluorescence polarization (Figure S2).18,19 Galactose-based compounds (S5m, S5p, S6m, S6p, S11) were evaluated against LecA and C-glycoside-based compounds […] and S16 against LecB. […]
PheraStar FS plate reader (BMG Labtech GmbH, Germany) with excitation filters at 485 nm and emission filters at 535 nm. […]

LecB = molecular target: T2, LecB (Pseudomonas aeruginosa, UniProt Q9HYN5); assay: Competitive binding assay based on fluorescence polarization, LecB
T2 construct: made in house
Method: LecA competitive binding assay was performed in presence of 2% DMSO, whereas LecB competitive binding assay had less than 0.5% DMSO present. In short, the compound dilution series were prepared in 96 well plates. 10 µL of each dilution in triplicates were mixed with 10 µL of master mix (40 µM LecA, 20 nM galactose-fluorescein reporter ligand S38 or 300 nM LecB and 20 nM S39 in TBS/Ca2+ buffer, Figure S3) in 384-well microtiter plates (Greiner Bio-One, Germany, cat no 781900). The plates were centrifuged (1 min, 500 g), sealed (EASYseal, Greiner Bio-One, cat no 676001) and incubated for 1 h in case of LecA and 6 h in case of LecB in a dark wet chamber under gentle shaking. Fluorescence was measured on a
PheraStar FS plate reader (BMG Labtech GmbH, Germany) with excitation filters at 485 nm and emission filters at 535 nm. The measured intensities were reduced by the blank values (protein in TBS/Ca2+ buffer) and analysed with MARS Data Analysis Software (BMG Labtech GmbH, Germany). IC50 values were determined by the four-parameter variable slope model with the minimum and maximum limits of the fit fixed according to the controls in each assay

LecA [2] = molecular target: T1, LecA; conditions: read-out: Kd by ITC; cited from earlier work
[3] = test system: P. aeruginosa PAO1 biofilms; assay: In vitro biofilm staining under flow conditions, compound supplementation to the medium; format: cell-based, Pseudomonas aeruginosa; conditions: 500 nM in medium, 4 h, 3 mL/h, fluorescence microscope
Method: (§1) P. aeruginosa biofilms were grown under flow conditions and observed by fluorescence microscopy in analogy to Ghanbari et al.[66] To this end, P. aeruginosa PAO1 expressing the red fluorescent protein mCherry[56] was diluted to an OD600 nm of 0.1 and injected into the microfluidics device. After a 30-min settling period, biofilms were grown under a constant laminar flow rate of 3 mL/h per channel. Following 48 h of incubation at 30 °C, dense and mature P. aeruginosa PAO1 biofilms were observed, which were then further used for analysis of the imaging probes.
To circumvent these technical drawbacks, the addition of compounds to the medium reservoir and retention at the biofilm was pursued. Imaging compounds were added to the medium reservoirs at a concentration of 500 nM, which were continuously pumped (3 mL/h) through the flow cell for 4 h. Compound accumulation at mature P. aeruginosa biofilms was immediately analyzed using fluorescence microscopy. Afterwards, the medium was exchanged, and the biofilms were washed for 30 min (3 mL/h, no compound) to monitor the retention (Figure 5). Furthermore, an analysis using CLSM was also performed after 4 h of accumulation without washing (Figures 5 and S22).
Figure 5 Staining of P. aeruginosa PAO1 biofilms grown under flow conditions with compound supplementation to the medium. Biofilm staining with (A) fluorescein divalent probe 17, (B) fluorescein control 24, (C) BODIPY divalent probe 19, and (D) BDP FL azide control 18 was monitored after 4 h of accumulation under constant flow (3 mL/h) of LB media containing 500 nM of respective compound. Retention of imaging compounds is shown after a subsequent wash period for 30 min with medium (3 mL/h, no compound). Images were recorded by using a fluorescence microscope. CLSM was performed for (E) BODIPY divalent probe 19 and the control (F) BDP FL azide 18 after 4 h of accumulation. Green signal originates from fluorescently labeled probes 17 and 19 and controls 24 and 18. P. aeruginosa constitutively expressing mCherry from pMP7605^56 is shown in red. Z-Stack size, 2 μm. Scale bar = 50 μm.
In vitro biofilm staining under flow conditions
The flow cell experiment was set up in analogy to Ghanbari et al. and in this study, optimized and established for biofilm staining.25 In principle, the experiment is based on an inlet connected to a medium source, a peristaltic pump providing constant medium flow, a flow chamber enabling analysis of bacterial growth and an outlet (waste container/bottle).
The medium used in the flow system was LB diluted by factor 5 containing 60 µg/mL
Gm. Silicone tubings 1.6 mm (ibidi, Germany) were used transporting medium from inlet to the peristaltic pump (Watson-Marlow Fluid Technology Solutions). Stopper hoses (CarlRoth) placed in peristaltic pump were coupled to silicone tubes via connectors (ibidi, Germany).
Stopper hoses are connected to bubble traps (obtained by Claus Sternberg, DTU Copenhagen) via 0.8 mm silicone tubing (ibidi, Germany). Bubble traps were used to remove air from the medium flow and to avoid biofilm disruption. Downstream from the bubble traps, the flow cell (μ-Slide VI 0.4 ibiTreat, ibidi, Germany) was placed into the system and connected to 1.6 mm silicone tubes (ibidi, Germany). The outlet is leading the medium from flow chamber to a waste […]
In order to inoculate the flow cell with P. aeruginosa PAO1 mCherry (pMP7605)23 the silicone tubes upstream and downstream of the flow chamber were pinched off by using commercial plastic clamps. The medium flow was stopped and the flow cell was inoculated by injecting 300 µL of the bacterial suspension (OD600nm of 0.1) into the silicone tubing upstream of the flow chamber. For this, a cannula (0.30 x 12 mm, Sterican) was used. The injection point was sealed with silicone glue. After bacterial settling time of 30 min, the flow was started again and clamps were removed. Growth temperature was regulated by using a heat system (ibidi, […]
Germany). […]

[4] = test system: P. aeruginosa PAO1 biofilms; assay: In vitro biofilm staining under flow conditions, injection method; format: cell-based, Pseudomonas aeruginosa; conditions: 17 μM in channel, 10 min incubation, then flow 3 mL/h for 10-20 min
Method: as §1
Two different staining methods were evaluated for the imaging of P. aeruginosa PAO1 biofilms: (I) direct injection of the imaging compounds into the flow system or (II) compound supplementation into the medium and gradual accumulation at the biofilm (Figure S18). […] The flow of compounds 17 and 24 and their arrival in the flow cells were monitored using a fluorescence microscope attached to the flow system. […]
Figure 4 Staining of P. aeruginosa PAO1 biofilms under flow following the injection method. […] Pictures of the same aggregates were recorded prior to compound injection (t−10), during a 10 min incubation period without flow (t0) and during the wash period (constant flow, 3 mL/h) at different time points t5, t10, t15, and t20 (5, 10, 15, and 20 min) using a fluorescence microscope. […]

T1 sequence (Q05097 whole entry): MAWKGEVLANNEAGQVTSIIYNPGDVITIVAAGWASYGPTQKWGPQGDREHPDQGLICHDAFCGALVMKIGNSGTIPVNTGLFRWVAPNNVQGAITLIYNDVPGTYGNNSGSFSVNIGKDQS
T2 sequence (Q9HYN5 entry or part of it): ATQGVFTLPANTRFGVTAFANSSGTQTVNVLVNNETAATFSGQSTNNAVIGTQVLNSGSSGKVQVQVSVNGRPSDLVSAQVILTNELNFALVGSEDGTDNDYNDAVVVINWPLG

SMILES: O=[N+]([O-])c1ccc(O[C@@H]2O[C@H](CO)[C@H](O)[C@H](O)[C@H]2O)cc1 [para-nitrophenyl β-D-galactoside]
- IC50 (LecA [1]): 39.7 ± 11.5 µM

SMILES: C#Cc1ccc(S(=O)(=O)NC[C@H]2O[C@@H](C)[C@@H](O)[C@@H](O)[C@@H]2O)s1 [compound 23]
- IC50 (LecB): 2.4 ± 0.5 µM

SMILES: OC[C@H]1O[C@@H](Oc2ccccc2)[C@H](O)[C@@H](O)[C@H]1O [compound 1, phenyl β-D-galactoside]
- Kd (LecA [2]): 8.8 µM

SMILES: O=C1OC2(c3ccc(O)cc3Oc3cc(O)ccc32)c2ccccc21 [compound 24, fluorescein, reference compound]
- Biofilm staining after accumulation [3]: did not result in any observable staining
- Retention of fluorescence at biofilm during wash [4]: completely disappeared after 10 min
